{
  "source": "PubChem BioAssay AID1963831",
  "about": "(Molecular Pharmacology Branch, DTP, NCI, 2024);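 also: spheroids exposed to compounds for seven days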;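 as to viability, T/C: 100% = DMSO vehicle control viability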",
  "test_system": "889142-216-R-J1-PDC complex spheroid viability",
  "test": "Anticancer human tumor 889142-216-R-J1-PDC patient-derived bladder carcinoma cell line growth inhibition [POLQ]",
  "conditions": "for IC50: curve of first compound; for viability, T/C: stronger effect = lower value",
  "method": "Multicellular complex tumor spheroid response to Polymerase (POL) inhibitors (novobiocin, ART-558, RP6685) in combination with a variety of drugs and investigational agents in selected tumor cell lines\nThe POL inhibitors (novobiocin, ART-558, and RP6685) were evaluated both individually and in combination with standard of care and investigational anticancer small molecules within a complex spheroid model of solid tumors. . Complex spheroids include a stromal component modeled by human endothelial cells (HUVEC) and fibroblasts modeled by human mesenchymal stem cells (MSCs). The concentration ranges selected for each drug and investigational agent were based upon clinically achievable concentrations if the clinical Cmax of the agent was known.\nCompounds. The drugs and investigational agents: novobiocin (NSC847541), ART-558 (NSC835418), RP-6685 (NSC848927), peposertib (NSC802822), ceralasertib (NSC780249), elimusertib (NSC800525), camonsertib (NSC841442), AZD-1390 (NSC803789), olaparib (NSC753686), talazoparib (NSC767125), rucaparib (NSC756644), sotorasib (NSC818433), MRTX-1133 (NSC836407), SN-38 (NSC673596), topotecan (NSC609699), epotoside (NSC141540), doxorubicin (NSC123127), gemcitabine (NSC613327), 5-fluorouracil (NSC19893), paclitaxel (NSC125973), vemurafenib (NSC761431), MSA-2 (NSC828583), SN-011 (NSC837082), adavosertib (NSC754352), prexasertib (NSC758257), carboplatin (NSC241240) and oxaliplatin (NSC266046), were obtained from the National Cancer Institute (NCI) Developmental Therapeutics Program Chemical Repository (21). The FDA-approved anticancer drug set is available from the Developmental Therapeutics Program at https://dtp.cancer.gov/organization/dscb/obtaining/. […] The stock solutions were prepared in dimethyl sulfoxide (DMSO, Sigma-Aldrich, St. Louis, MO, cat. D2650), except for the platinum compounds which were prepared in saline (Quality Biological, Gaithersburg, MD, cat. 114-055-101), at 800-fold the tested concentration and stored at -70 degrees C prior to their use. All drugs and investigational agents were tested over a range starting from a high concentration at or near the clinical Cmax and decreasing in half-log increments. If the clinical Cmax for an agent had not been determined, the highest concentration tested was 10 microM, except for SN-38, which was tested at a high concentration of 1 microM.\nCell Culture. All cells were maintained in an incubator at 37 degrees C and 5% CO2 with 95% humidity. The PDC lines were cultured according to standard operating procedures established by the NCI PDMR (https://pdmr.cancer.gov). Table 3 of the manuscript, lists the cell lines along with the number of the three cell types plated to form the mct-spheroids and media for tumor cell growth. After thawing, all PDC lines, except 997537-175-T-J1-PDC and 415267-285-R-J2-PDC, were cultured in Matrigel-coated flasks prepared with a working solution of 1X Ham's F-12 nutrient mix, without supplementation (Thermo Fisher Scientific, cat. 11765054), 100 U/mL penicillin-streptomycin (Thermo Fisher Scientific, cat. 15140122), and 2.5% Matrigel (Corning Inc., Corning, NY, cat. 354248) for the first three passages. The two PDC lines 997537-175-T-J1-PDC and 415267-285-R-J2-PDC were cultured on uncoated flasks. The 857933-349-R-J2-PDC line was cultured in 6C/Colon 1B media containing advanced DMEM/F-12 (Thermo Fisher Scientific, cat. 12634028), 10 mM HEPES (Thermo Fisher Scientific, cat. 15630080), 1X GlutaMAX supplement (Thermo Fisher Scientific, cat. 35050061), 0.1 mg/mL primocin (InvivoGen, San Diego, CA, cat. ant-pm-2), 10% defined fetal bovine serum, heat inactivated (HyClone Laboratories Inc., Logan, UT, cat. SH30070.03HI), 50% L-WRN conditioned media (ATCC, cat. CRL-3276), 1.25 mM N-Acetyl-L-cysteine (Sigma-Aldrich, cat. A9165), 10 mM nicotinamide (Sigma-Aldrich, cat. N0636), 1X B-27 supplement (Thermo Fisher Scientific, cat. 17504044), 1X N-2 supplement (Thermo Fisher Scientific, cat. […]",
  "data": [
    {"smiles": "CCc1cc2c(N3CCc4c(cc(Cn5ccnc5)cc4-c4cn(C)nc4C(F)(F)F)C3=O)ccnc2c(OC)n1", "note": "+ Cc1cccc(N(C)C(=O)C2C(O)CCN2c2nc(C)cc(C(F)(F)F)c2C#N)c1", "values": [
      {"measurement": "IC50", "setting": "second compound 0.0316 µM", "result": "> 10", "unit": "µM"},
      {"measurement": "IC50", "setting": "second compound 0.1 µM", "result": "> 10", "unit": "µM"},
      {"measurement": "IC50", "setting": "second compound 0.316 µM", "result": "> 10", "unit": "µM"},
      {"measurement": "IC50", "setting": "second compound 1 µM", "result": "> 10", "unit": "µM"},
      {"measurement": "IC50", "setting": "second compound 3.16 µM", "result": "> 10", "unit": "µM"},
      {"measurement": "IC50", "setting": "second compound 10 µM", "result": "> 10", "unit": "µM"},
      {"measurement": "viability, T/C", "setting": "second compound 0.0316 µM, first compound 0.0316 µM", "result": 110, "unit": "%"},
      {"measurement": "viability, T/C", "setting": "second compound 0.0316 µM, first compound 0.1 µM", "result": 98.7, "unit": "%"},
      {"measurement": "viability, T/C", "setting": "second compound 0.0316 µM, first compound 0.316 µM", "result": 121, "unit": "%"},
      {"measurement": "viability, T/C", "setting": "second compound 0.0316 µM, first compound 1 µM", "result": 125, "unit": "%"},
      {"measurement": "viability, T/C", "setting": "second compound 0.0316 µM, first compound 3.16 µM", "result": 127, "unit": "%"},
      {"measurement": "viability, T/C", "setting": "second compound 0.0316 µM, first compound 10 µM", "result": 103, "unit": "%"},
      {"measurement": "viability, T/C", "setting": "second compound 0.1 µM, first compound 0.0316 µM", "result": 95.2, "unit": "%"},
      {"measurement": "viability, T/C", "setting": "second compound 0.1 µM, first compound 0.1 µM", "result": 116, "unit": "%"},
      {"measurement": "viability, T/C", "setting": "second compound 0.1 µM, first compound 0.316 µM", "result": 120, "unit": "%"},
      {"measurement": "viability, T/C", "setting": "second compound 0.1 µM, first compound 1 µM", "result": 123, "unit": "%"},
      {"measurement": "viability, T/C", "setting": "second compound 0.1 µM, first compound 3.16 µM", "result": 102, "unit": "%"},
      {"measurement": "viability, T/C", "setting": "second compound 0.1 µM, first compound 10 µM", "result": 87.3, "unit": "%"},
      {"measurement": "viability, T/C", "setting": "second compound 0.316 µM, first compound 0.0316 µM", "result": 116, "unit": "%"},
      {"measurement": "viability, T/C", "setting": "second compound 0.316 µM, first compound 0.1 µM", "result": 115, "unit": "%"},
      {"measurement": "viability, T/C", "setting": "second compound 0.316 µM, first compound 0.316 µM", "result": 130, "unit": "%"},
      {"measurement": "viability, T/C", "setting": "second compound 0.316 µM, first compound 1 µM", "result": 140, "unit": "%"},
      {"measurement": "viability, T/C", "setting": "second compound 0.316 µM, first compound 3.16 µM", "result": 132, "unit": "%"},
      {"measurement": "viability, T/C", "setting": "second compound 0.316 µM, first compound 10 µM", "result": 76.8, "unit": "%"},
      {"measurement": "viability, T/C", "setting": "second compound 1 µM, first compound 0.0316 µM", "result": 93, "unit": "%"},
      {"measurement": "viability, T/C", "setting": "second compound 1 µM, first compound 0.1 µM", "result": 85.7, "unit": "%"},
      {"measurement": "viability, T/C", "setting": "second compound 1 µM, first compound 0.316 µM", "result": 148, "unit": "%"},
      {"measurement": "viability, T/C", "setting": "second compound 1 µM, first compound 1 µM", "result": 122, "unit": "%"},
      {"measurement": "viability, T/C", "setting": "second compound 1 µM, first compound 3.16 µM", "result": 127, "unit": "%"},
      {"measurement": "viability, T/C", "setting": "second compound 1 µM, first compound 10 µM", "result": 74.5, "unit": "%"},
      {"measurement": "viability, T/C", "setting": "second compound 3.16 µM, first compound 0.0316 µM", "result": 85.3, "unit": "%"},
      {"measurement": "viability, T/C", "setting": "second compound 3.16 µM, first compound 0.1 µM", "result": 107, "unit": "%"},
      {"measurement": "viability, T/C", "setting": "second compound 3.16 µM, first compound 0.316 µM", "result": 128, "unit": "%"},
      {"measurement": "viability, T/C", "setting": "second compound 3.16 µM, first compound 1 µM", "result": 115, "unit": "%"},
      {"measurement": "viability, T/C", "setting": "second compound 3.16 µM, first compound 3.16 µM", "result": 109, "unit": "%"},
      {"measurement": "viability, T/C", "setting": "second compound 3.16 µM, first compound 10 µM", "result": 75.8, "unit": "%"},
      {"measurement": "viability, T/C", "setting": "second compound 10 µM, first compound 0.0316 µM", "result": 86.5, "unit": "%"},
      {"measurement": "viability, T/C", "setting": "second compound 10 µM, first compound 0.1 µM", "result": 88, "unit": "%"},
      {"measurement": "viability, T/C", "setting": "second compound 10 µM, first compound 0.316 µM", "result": 102, "unit": "%"},
      {"measurement": "viability, T/C", "setting": "second compound 10 µM, first compound 1 µM", "result": 87.6, "unit": "%"},
      {"measurement": "viability, T/C", "setting": "second compound 10 µM, first compound 3.16 µM", "result": 92.9, "unit": "%"},
      {"measurement": "viability, T/C", "setting": "second compound 10 µM, first compound 10 µM", "result": 74.3, "unit": "%"}
    ]}
  ]
}
